Results as given in patent US7858738B2, “Synthetic human peptides and pharmaceutical compositions comprising them for the treatment of systemic lupus erythematosus” (Yeda Research and Development Co., Ltd., priority 2001, dated 2010).

Legend:
MMP-9 = MMP-9 activity in sera of (NZB×NZW)F1 mice (gel zymography); type: in vivo; conditions: 300 μg s.c. once a week from age 7 months; sera after 5 injections; FIG. 23
Description: Induction and treatment of experimental SLE. In order to induce experimental SLE, BALB/c mice were immunized with 1-2 μg of the human mAb 16/6Id and boosted 3 weeks later. For the prevention of experimental SLE, mice were given hCDR1 or hCDR3 (mCDR1 or revmCDR1 as control peptide in Example 12) intravenously (i.v.) or s.c. concomitant with the immunization, and were injected weekly thereafter for 5 weeks. Treatment of an established disease started three and a half months following disease induction with the 16/6Id, when clinical manifestations were already observed. In Example 12, mice received 10 weekly injections (i.v. or s.c.) of mCDR1 or revmCDR1 at a dose of 100 μg/mouse. Prevention and treatment of SLE-like disease in (NZB×NZW)F1 mice with the hCDR1 or mCDR1 peptide. For prevention of SLE, mice at the age of 2 months, before disease manifestations are observed, were injected s.c. with hCDR1 (or mCDR1 in Example 12, 250 μg/mouse) once a week for 10 weeks. To treat an established disease, mice at the age of 5-7 months were injected with hCDR1 (in Example 12, mCDR1 s.c., 250 μg/mouse) once a week for 10 weeks. Proliferative Responses. PBL were isolated from heparinized venous blood by Ficoll-Hypaque (Pharmacia) density-gradient centrifugation. All assays were performed, in triplicate, in flat-bottomed microtiter plates (Falcon, Becton Dickinson, Oxmard, Calif., USA) in which 2×10^5 PBL were cultured in enriched RPMI-1640 as described (Dayan et al., 2000). The PBL were exposed to various concentrations (0.1-40 μg/well) of the human anti-DNA 16/6Id mAb with and without the addition of the various CDR-based peptides at a concentration of at least 10-fold excess over that of the 16/6Id. Phytohemagglutinin (PHA; 2 μg/well) was used as a control for culture conditions at each experiment. The cultures were incubated in 7.5% CO2 at 37° C. for 6 days. Eighteen hours before the cells were harvested, [^3H]-thymidine (0.5μ Ci of 5 Ci/mmol) (Nuclear Research Center, Negev, Israel) was added to all cultures. Results are expressed as the mean thymidine incorporation in counts per minute (CPM) of triplicate culture±SD, or as stimulation index (S.I.; the ratio of mean CPM at the optimal concentration of the human 16/6Id to the mean CPM in the presence of medium alone). […] TGF-β was determined by an ELISA. […] The substrate solution used was TMB color Reagent (Helix Diagnostics, West Sacramento, Calif.), and enzyme activity was evaluated by using 570- and 630-nm filters. […] Proteinuria was measured semiquantitatively by using Combistix kit (Ames Division, Bayer Diagnostics, Newbury, U.K.). White blood cells (WBC, for leukopenia) were counted after a 10-fold dilution of heparinized blood in distilled water containing 1% acetic acid (vol/vol). […]

BALB/c-derived LNC = assay: In vivo inhibition of proliferation of BALB/c LNC to the human 16/6Id mAb; set-up: species or system mice
Description: Because our aim was to test the inhibitory capacity of the peptides based on the CDR of the human 16/6Id autoantibody, it was of importance to find out whether peptides hCDR1 and hCDR3 are capable of inhibiting the priming to the whole molecule of the human 16/6Id mAb. To this end, BALB/c and SJL mice were primed with the human 16/6Id mAb (2 μg/mouse) in CFA intradermally in the hind footpads. […] Ten days following immunization, the mice were sacrificed and their LNCs were tested in vitro for their ability to proliferate to different concentrations (0.1-10 μg/well) of the human anti-DNA 16/6Id mAb.
(§1) The results are presented as maximum % inhibition of the proliferation to the immunizing human 16/6Id mAb of lymph node cells of mice immunized and treated with the peptides hCDR1 and hCDR3 as compared with mice that were immunized with the 16/6Id mAb but were not treated with the peptides.
In another experiment, BALB/c mice were immunized with 1 μg human 16/6Id in CFA, intradermally in the hind footpads, and either were injected with hCDR1 s.c., 300 μg/mouse in PBS, or were not further treated. Ten days later the mice were sacrificed and their LNC were tested for their ability to proliferate in vitro to the human 16/6Id. Thus, popliteal LNCs (0.5×10^6) were incubated in the presence of various concentrations (0.1-10 μg/well) of the human anti-DNA 16/6Id mAb. At the end of 4 days incubation, ^3H-thymidine was added to the cultures for the last 18 hours of incubation. Cells were then harvested and radioactivity counted.

SJL-derived LNC = assay: In vivo inhibition of proliferation of SJL LNC to the human 16/6Id mAb; set-up: species or system mice; conditions: maximum % inhibition; 200 μg/mouse s.c. in PBS concomitant with priming
Description: Because our aim was to test the inhibitory capacity of the peptides based on the CDR of the human 16/6Id autoantibody, it was of importance to find out whether peptides hCDR1 and hCDR3 are capable of inhibiting the priming to the whole molecule of the human 16/6Id mAb. To this end, BALB/c and SJL mice were primed with the human 16/6Id mAb (2 μg/mouse) in CFA intradermally in the hind footpads. The priming was done concomitant with the s.c. administration in PBS of 200 μg/mouse of hCDR1 to groups of BALB/c mice and of hCDR3 to SJL mice. Ten days following immunization, the mice were sacrificed and their LNCs were tested in vitro for their ability to proliferate to different concentrations (0.1-10 μg/well) of the human anti-DNA 16/6Id mAb.
as §1

Sequence	activity of MMP-9 in pooled sera (MMP-9)	% inhibition of proliferation (BALB/c-derived LNC; 50 μg/mouse s.c. in PBS, 16/6Id mAb 0.1 μg/well) [%]	% inhibition of proliferation (BALB/c-derived LNC; 50 μg/mouse s.c. in PBS, 16/6Id mAb 5 μg/well) [%]	% inhibition of proliferation (BALB/c-derived LNC; 50 μg/mouse s.c. in PBS, 16/6Id mAb 10 μg/well) [%]	% inhibition of proliferation (BALB/c-derived LNC; 300 μg/mouse s.c. in PBS, 16/6Id mAb 0.1 μg/well) [%]	% inhibition of proliferation (BALB/c-derived LNC; 300 μg/mouse s.c. in PBS, 16/6Id mAb 1 μg/well) [%]	% inhibition of proliferation (BALB/c-derived LNC; 300 μg/mouse s.c. in PBS, 16/6Id mAb 5 μg/well) [%]	% inhibition of proliferation (BALB/c-derived LNC; 300 μg/mouse s.c. in PBS, 16/6Id mAb 10 μg/well) [%]	% Inhibition of the proliferation of BALB/c-derived LNC to the human 16/6Id mAb (BALB/c-derived LNC; maximum % inhibition, 200 μg/mouse s.c. in PBS concomitant with priming) [%]	% Inhibition of the proliferation of SJL-derived LNC to the human 16/6Id mAb (SJL-derived LNC) [%]
GYYWSWIRQPPGKGEEWIG (Human) [hCDR1, 19-mer peptide based on the CDR1 of the heavy chain of the human 16/6Id mAb]	down regulated	98	73	64	47	66	76	62	88	–
YYCARGLLRGGWNDVDYYGMDV (Human) [hCDR3, peptide based on the CDR3 of the heavy chain of the human 16/6Id mAb]	–	–	–	–	–	–	–	–	–	68
